Measured values taken from patent EP0183174A2, “Substituted phenoxy urea, processes for its preparation and herbicide containing it as active ingredient” (KUMIAI CHEMICAL INDUSTRY CO., LTD., priority 1984, dated 1986).

What was measured:
soybean = test: Test Example 3: herbicidal test by upland soil treatment (phytotoxicity); assay type: in vivo; parameters: key: 5: Withered; 4.5: Herbicidal effect (or phytotoxicity) in a range of 90 to 99%; 4: Herbicidal effect (or phytotoxicity) in a range of 80 to 89%; 3.5: Herbicidal effect (or phytotoxicity) in a range of 70 to 79%; 3: Herbicidal effect (or phytotoxicity) in a range of 60 to 69%; 2.5: Herbicidal effect (or phytotoxicity) in a range of 50 to 59%; 2: Herbicidal effect (or phytotoxicity) in a range of 40 to 49%; 1.5: Herbicidal effect (or phytotoxicity) in a range of 30 to 39%; 1: Herbicidal effect (or phytotoxicity) in a range of 20 to 29%; 0.5: Herbicidal effect (or phytotoxicity) in a range of 1 to 19%; 0: No herbicidal effect (or no phytotoxicity); settings: evaluated twenty days after application
Text: (§1) Into each plastic pot of 600 cm^2, upland soil was filled, then seeds of barnyardgrass, crabgrass, green foxtail, redroot pigweed, rice flatsedge, rice, wheat, maize, soybean, cotton and sugar beet were sown, and they were covered with soil. A predetermined amount of the wettable powder prepared from the test compound in accordance with Formulation Example 3 and diluted with water, was uniformly applied to the surface of the soil at an application rate of 1000 liter/hectare by means of a small size spray. They were grown in a greenhouse, and twenty days after the application, the herbicidal effects and phytotoxicity were evaluated in accordance with the standards as identified in Table 5.

maize = test: as above; assay type: in vivo; parameters: key: 5: Withered; 4.5: Herbicidal effect (or phytotoxicity) in a range of 90 to 99%; 4: Herbicidal effect (or phytotoxicity) in a range of 80 to 89%; 3.5: Herbicidal effect (or phytotoxicity) in a range of 70 to 79%; 3: Herbicidal effect (or phytotoxicity) in a range of 60 to 69%; 2.5: Herbicidal effect (or phytotoxicity) in a range of 50 to 59%; 2: Herbicidal effect (or phytotoxicity) in a range of 40 to 49%; 1.5: Herbicidal effect (or phytotoxicity) in a range of 30 to 39%; 1: Herbicidal effect (or phytotoxicity) in a range of 20 to 29%; 0.5: Herbicidal effect (or phytotoxicity) in a range of 1 to 19%; 0: No herbicidal effect (or no phytotoxicity); settings: evaluated twenty days after application
Text: as §1

CN(C)C(=O)NOc1cc(Cl)ccc1Cl [Compound No. 1, 3-(2,5-Dichlorophenoxy)-1,1-dimethyl urea]
0: Phytotoxicity Soybean (soybean; Dose 1 kg/HA) | Phytotoxicity Soybean (soybean; Dose 4 kg/HA) | Phytotoxicity Maize (maize; Dose 1 kg/HA) | Phytotoxicity Maize (maize; Dose 4 kg/HA)
